Assay results from patent publication US20250268826A1, “IONIZABLE LIPIDOID COMPOSITIONS AND THERAPEUTIC USES THEREOF” (Flagship Pioneering Innovations VII, LLC, priority 2023, published 2025).
“And” between values parts separate entries of the source, which are not always exact repeats. Identical values can stand only once. Like-named read-outs stand apart in the source and are kept apart here. Blank lines part the entries; values can stand above or below the compound they belong to.

Assays:
Assay type in all cases: physicochemical
[1] = LNP size and polydispersity index (PDI) by dynamic light scattering (DLS)
[2] = LNP Zeta potential measured using a Zetasizer (Malvern); conditions: for Zeta potential (mV): LNP with hEPO mRNA, N:P ratio 6
[3] = Encapsulation efficiency (EE %) by fluorescence based Ribogreen assay
[4] = Table 9, LNP 50:10:38.5:1.5 mol %, hEPO mRNA, N:P 6
[5] = Table 9, LNP Lipid:DSPC:Cholesterol:DMG-PEG2k 50:10:38.5:1.5 mol %, hEPO mRNA, N:P 6
[6] = Table 10, LNP with hEPO mRNA, Lipid:DSPC:Cholesterol:DMG-PEG2k 50:10:38.5:1.5 mol %, N:P ratio 6, DLS
[7] = Table 11, LNP with hEPO mRNA, Lipid:DSPC:Cholesterol:DMG-PEG2k 50:10:38.5:1.5 mol % (ALC-0315: 46.3:9.4:42.7:1.6), N:P ratio 6, HEPES/sodium chloride/sucrose buffer, stored at −80C
[8] = Table 1, LNP lipid:DSPC:Cholesterol:DMG-PEG2k 50:10:38.5:1.5 mol %, hEPO mRNA, N:P 6
[9] = Table 3, LNP 50:10:38.5:1.5 mol %, hEPO mRNA, N:P 6
[10] = Table 3, LNP lipid:DSPC:Cholesterol:DMG-PEG2k 50:10:38.5:1.5 mol %, hEPO mRNA, N:P 6
[11] = Table 5, LNP 50:10:38.5:1.5 mol %, hEPO mRNA, N:P 6
[12] = Table 5, LNP 60:0:38.5:1.5 mol %, hEPO mRNA, N:P 6
[13] = Table 2, LNP 20:10:68.5:1.5 mol %, EGFP mRNA, N:P 2.4
[14] = Table 2, LNP 20:40:38.5:1.5 mol %, EGFP mRNA, N:P 2.4
[15] = Table 2, LNP 30:10:58.5:1.5 mol %, EGFP mRNA, N:P 3.6
[16] = Table 2, LNP 30:30:38.5:1.5 mol %, EGFP mRNA, N:P 3.6
[17] = Table 2, LNP 40:10:48.5:1.5 mol %, EGFP mRNA, N:P 4.8
[18] = Table 2, LNP 40:20:38.5:1.5 mol %, EGFP mRNA, N:P 4.8
[19] = Table 2, LNP 50:10:38.5:1.5 mol %, EGFP mRNA, N:P 6
[20] = Table 8, LNP 50:10:38.5:1.5 mol %, hEPO mRNA, N:P 6

SMILES: CCCCCCCCC(CCCCCC)C(=O)OCCN(CCOC(=O)C(CCCCCC)CCCCCCCC)C(=O)CN(CC)CCC.Cl (single isomer, unassigned) [Compound 960a]
PDI [1, 4]: 0.125
Size [1, 5]: 77.4 nm
Zeta potential [2, 4]: −28.49 mV
Encapsulation Efficiency % [3, 4]: 99.7%

SMILES: CCCCCCCCC(CCCCCC)C(=O)OCCN(CCOC(=O)C(CCCCCC)CCCCCCCC)C(=O)CN(CC)CCC.Cl (single isomer, unassigned) [Compound 960b]
PDI [1, 4]: 0.099
Size [1, 5]: 61.4 nm
Zeta potential [2, 4]: −23.35 mV
Encapsulation Efficiency % [3, 4]: 99.8%

SMILES: CCCCCCCCC(CCCCCC)C(=O)OCCCCCCN(CCCCO)CCCCCCOC(=O)C(CCCCCC)CCCCCCCC (stereo not drawn) [ALC-0315, reference compound]
PDI [1, 6]: 0.295
Size (nm) [1, 6]: 61.4 nm
PDI [1, 7]: 0.280
Size (nm) [1, 7]: 74.7 nm
Zeta potential (mV) ([2]; Table 10, Lipid:DSPC:Cholesterol:DMG-PEG2k 50:10:38.5:1.5 mol %): −10.3 mV
Zeta potential (mV) ([2]; Table 11, Lipid:DSPC:Cholesterol:DMG-PEG2k 50:10:38.5:1.5 mol % (ALC-0315: 46.3:9.4:42.7:1.6), HEPES/sodium chloride/sucrose buffer, stored at −80C): −7.5 mV
Encapsulation Efficiency % ([3]; Table 10, LNP with hEPO mRNA, Lipid:DSPC:Cholesterol:DMG-PEG2k 50:10:38.5:1.5 mol %, N:P ratio 6, Ribogreen assay): 83.8%
Encapsulation Efficiency % [3, 7]: 91.0%

SMILES: CCCCCCCC/C=C\CCCCCCCC(=O)OCCN(CCOC(=O)CCCCCCC/C=C\CCCCCCCC)C(=O)C(C)N (stereo not drawn) [Compound 107]
Size [1, 8]: 100.4 nm
PDI [1, 9]: 0.016
Size [1, 10]: 60.6 nm
Zeta potential [2, 8]: 5.484 mV
Encapsulation Efficiency % [3, 8]: 93%
Encapsulation Efficiency % [3, 9]: 99.9%

SMILES: CCCCCCCCC(CCCCCC)C(=O)OCCN(CCOC(=O)C(CCCCCC)CCCCCCCC)C(=O)C(C)N (stereo not drawn) [Compound 111]
PDI [1, 8]: 0.223
Size [1, 8]: 93.4 nm
PDI [1, 13]: 0.129
PDI [1, 14]: 0.095
PDI [1, 15]: 0.082
PDI [1, 16]: 0.117
PDI [1, 17]: 0.038
PDI [1, 18]: 0.136
PDI [1, 19]: 0.235 and 0.253
Size ([1]; Table 2, LNP lipid:DSPC:Cholesterol:DMG-PEG2k 20:10:68.5:1.5 mol %, EGFP mRNA, N:P 2.4): 57.5 nm
Size ([1]; Table 2, LNP lipid:DSPC:Cholesterol:DMG-PEG2k 20:40:38.5:1.5 mol %, EGFP mRNA, N:P 2.4): 69.2 nm
Size ([1]; Table 2, LNP lipid:DSPC:Cholesterol:DMG-PEG2k 30:10:58.5:1.5 mol %, EGFP mRNA, N:P 3.6): 46.5 nm
Size ([1]; Table 2, LNP lipid:DSPC:Cholesterol:DMG-PEG2k 30:30:38.5:1.5 mol %, EGFP mRNA, N:P 3.6): 57 nm
Size ([1]; Table 2, LNP lipid:DSPC:Cholesterol:DMG-PEG2k 40:10:48.5:1.5 mol %, EGFP mRNA, N:P 4.8): 44.1 nm
Size ([1]; Table 2, LNP lipid:DSPC:Cholesterol:DMG-PEG2k 40:20:38.5:1.5 mol %, EGFP mRNA, N:P 4.8): 48.2 nm
Size ([1]; Table 2, LNP lipid:DSPC:Cholesterol:DMG-PEG2k 50:10:38.5:1.5 mol %, EGFP mRNA, N:P 6): 110.9 nm and 106 nm
PDI [1, 9]: 0.27
Size [1, 10]: 100.9 nm
Zeta potential [2, 8]: −3.357 mV
Zeta potential [2, 13]: −6.2 mV
Zeta potential [2, 14]: −8.876 mV
Zeta potential [2, 15]: −4.4 mV
Zeta potential [2, 16]: −9.169 mV
Zeta potential [2, 17]: −6.9 mV
Zeta potential [2, 18]: −8.503 mV
Encapsulation Efficiency % [3, 8]: 95.9%
Encapsulation Efficiency % [3, 13]: 99.7%
Encapsulation Efficiency % [3, 14]: 99.3%
Encapsulation Efficiency % [3, 15]: 99.8%
Encapsulation Efficiency % [3, 16]: 99.2%
Encapsulation Efficiency % [3, 17]: 99.7%
Encapsulation Efficiency % [3, 18]: 99.6%
Encapsulation Efficiency % [3, 19]: 99.4% and 99.8%
Encapsulation Efficiency % [3, 9]: 98.1%

SMILES: CCCCCCCC/C=C\CCCCCCCC(=O)OCCN(CCOC(=O)CCCCCCC/C=C\CCCCCCCC)C(=O)C(N)Cc1ccccc1 (stereo not drawn) [Compound 113]
PDI [1, 8]: 0.126
Size [1, 8]: 79.1 nm
PDI [1, 9]: 0.068
Size [1, 10]: 61.4 nm
Zeta potential [2, 8]: −2.878 mV
Encapsulation Efficiency % [3, 8]: 95.2%
Encapsulation Efficiency % [3, 9]: 99.7%

SMILES: CCCCCCCC/C=C\CCCCCCCC(=O)OCCN(CCOC(=O)CCCCCCC/C=C\CCCCCCCC)C(=O)C(N)Cc1c[nH]cn1 (stereo not drawn) [Compound 125]
PDI [1, 8]: 0.46
Size [1, 8]: 109.4 nm
Encapsulation Efficiency % [3, 8]: 99.4%

SMILES: CCCCCCCCC(CCCCCC)C(=O)OCCN(CCOC(=O)C(CCCCCC)CCCCCCCC)C(=O)C(N)Cc1c[nH]cn1 (stereo not drawn) [Compound 129]
Size [1, 8]: 93.8 nm
Encapsulation Efficiency % [3, 8]: 99.7%

SMILES: CCCCCCCC/C=C\CCCCCCCC(=O)OCCN(CCOC(=O)CCCCCCC/C=C\CCCCCCCC)C(=O)[C@@H](N)Cc1ccccc1.Cl [Compound 202]
PDI [1, 9]: 0.033
Size [1, 10]: 60.7 nm
Encapsulation Efficiency % [3, 9]: 99.7%

SMILES: CCCCCCCCC(CCCCCC)C(=O)OCCN(CCOC(=O)C(CCCCCC)CCCCCCCC)C(=O)CC(C)NCCC.Cl (stereo not drawn) [Compound 948]
PDI [1, 20]: 0.188
Size ([1]; Table 8, LNP Lipid:DSPC:Cholesterol:DMG-PEG2k 50:10:38.5:1.5 mol %, hEPO mRNA, N:P 6): 74.1 nm
Encapsulation Efficiency % [3, 20]: 99.7%

SMILES: CCCCCCCCC(CCCCCC)C(=O)OCCN(CCOC(=O)C(CCCCCC)CCCCCCCC)C(=O)CN(C)C (stereo not drawn) [Compound 961]
Encapsulation Efficiency % [3]: 99.8%

Further lines, results first:

PDI [1, 8]: 0.088
Size [1, 8]: 62.6 nm
Zeta potential [2, 8]: 4.394 mV
Encapsulation Efficiency % [3, 8]: 97.9%
SMILES: CCCCCCCC/C=C\CCCCCCCC(=O)OCCN(CCOC(=O)CCCCCCC/C=C\CCCCCCCC)C(=O)CN [Compound 101]

PDI [1, 8]: 0.092
Size [1, 8]: 77.3 nm
Zeta potential [2, 8]: 9.778 mV
Encapsulation Efficiency % [3, 8]: 97.5%
SMILES: CCCCCCCCCCCC(=O)OCCN(CCOC(=O)CCCCCCCCCCC)C(=O)CN [Compound 103]

PDI [1, 8]: 0.441
Size [1, 8]: 74.7 nm
Zeta potential [2, 8]: −2.361 mV
Encapsulation Efficiency % [3, 8]: 94.4%
SMILES: CCCCCCCCCC(=O)OCCN(CCOC(=O)CCCCCCCCC)C(=O)CN [Compound 104]

PDI [1, 8]: 0.217
Size [1, 8]: 72.6 nm
PDI [1, 9]: 0.256
Size [1, 10]: 162.2 nm
PDI [1, 11]: 0.104
PDI [1, 12]: 0.198
Size [1, 12]: 146.3 nm
Size ([1]; Table 5, LNP Lipid:DSPC:Cholesterol:DMG-PEG2k 50:10:38.5:1.5 mol %, hEPO mRNA, N:P 6): 166.9 nm
Zeta potential [2, 8]: −4.852 mV
Zeta potential [2, 11]: −5.091 mV
Zeta potential [2, 12]: −8.315 mV
Encapsulation Efficiency % [3, 8]: 91.3%
Encapsulation Efficiency % [3, 9]: 99.9%
Encapsulation Efficiency % [3, 11]: 99.6%
Encapsulation Efficiency % [3, 12]: 99.3%
SMILES: CCCCCCCCC(CCCCCC)C(=O)OCCN(CCOC(=O)C(CCCCCC)CCCCCCCC)C(=O)CN (stereo not drawn) [Compound 105]

PDI [1, 8]: 0.557
Size [1, 8]: 90.7 nm
Zeta potential [2, 8]: 8.911 mV
Encapsulation Efficiency % [3, 8]: 97.6%
SMILES: CCCCCCCCCCCC(=O)OCCN(CCOC(=O)CCCCCCCCCCC)C(=O)C(C)N (stereo not drawn) [Compound 109]

PDI [1, 8]: 0.069
Size [1, 8]: 57.7 nm
Zeta potential [2, 8]: −4.943 mV
Encapsulation Efficiency % [3, 8]: 98%
SMILES: CCCCCCCCCC(=O)OCCN(CCOC(=O)CCCCCCCCC)C(=O)C(C)N (stereo not drawn) [Compound 110]

PDI [1, 8]: 0.291
Size [1, 8]: 70.8 nm
Zeta potential [2, 8]: −2.403 mV
Encapsulation Efficiency % [3, 8]: 89.5%
SMILES: CCCCCCCCCCCC(=O)OCCN(CCOC(=O)CCCCCCCCCCC)C(=O)C(N)Cc1ccccc1 (stereo not drawn) [Compound 115]

PDI [1, 9]: 0.032
Size [1, 10]: 63.1 nm
Encapsulation Efficiency % [3, 9]: 99.9%
SMILES: CCCCCCCC/C=C\CCCCCCCC(=O)OCCN(CCOC(=O)CCCCCCC/C=C\CCCCCCCC)C(=O)[C@H](C)N.Cl [Compound 201]
